According to patent publication US12252701B2, “Chimeric antigen receptor T cell therapy” (KITE PHARMA, INC., priority 2020, dated 2025):

Tests used:
Nalm6 cells = assay: Serial killing assay, T-cell (CD4, CD8) and Nalm6 cell counts by flow cytometry; format: cell-based, human; details: for persistence of T-cells (CD4 and CD8 counts) / serial killing assessed by Nalm6 cells (flow cytometry): E:T ratio of 1:1, dose titration; for impact on T-cell counts and Nalm6 cell counts: E:T ratio of 1:3, dose titration
Description: T-cell counts (CD4 and CD8) were assessed by flow cytometry.
Nalm6 cells were assessed by flow cytometry.
T-cell counts (CD4 and CD8) and Nalm6 cells were assessed by flow cytometry.

JAK2 = JAK2 (Homo sapiens, UniProt O60674); assay: JAK kinase inhibition biochemical assay (Kinase-Glo Plus luminescence), JAK2; details: 10 μM ATP
JAK2, sequence (O60674 whole entry): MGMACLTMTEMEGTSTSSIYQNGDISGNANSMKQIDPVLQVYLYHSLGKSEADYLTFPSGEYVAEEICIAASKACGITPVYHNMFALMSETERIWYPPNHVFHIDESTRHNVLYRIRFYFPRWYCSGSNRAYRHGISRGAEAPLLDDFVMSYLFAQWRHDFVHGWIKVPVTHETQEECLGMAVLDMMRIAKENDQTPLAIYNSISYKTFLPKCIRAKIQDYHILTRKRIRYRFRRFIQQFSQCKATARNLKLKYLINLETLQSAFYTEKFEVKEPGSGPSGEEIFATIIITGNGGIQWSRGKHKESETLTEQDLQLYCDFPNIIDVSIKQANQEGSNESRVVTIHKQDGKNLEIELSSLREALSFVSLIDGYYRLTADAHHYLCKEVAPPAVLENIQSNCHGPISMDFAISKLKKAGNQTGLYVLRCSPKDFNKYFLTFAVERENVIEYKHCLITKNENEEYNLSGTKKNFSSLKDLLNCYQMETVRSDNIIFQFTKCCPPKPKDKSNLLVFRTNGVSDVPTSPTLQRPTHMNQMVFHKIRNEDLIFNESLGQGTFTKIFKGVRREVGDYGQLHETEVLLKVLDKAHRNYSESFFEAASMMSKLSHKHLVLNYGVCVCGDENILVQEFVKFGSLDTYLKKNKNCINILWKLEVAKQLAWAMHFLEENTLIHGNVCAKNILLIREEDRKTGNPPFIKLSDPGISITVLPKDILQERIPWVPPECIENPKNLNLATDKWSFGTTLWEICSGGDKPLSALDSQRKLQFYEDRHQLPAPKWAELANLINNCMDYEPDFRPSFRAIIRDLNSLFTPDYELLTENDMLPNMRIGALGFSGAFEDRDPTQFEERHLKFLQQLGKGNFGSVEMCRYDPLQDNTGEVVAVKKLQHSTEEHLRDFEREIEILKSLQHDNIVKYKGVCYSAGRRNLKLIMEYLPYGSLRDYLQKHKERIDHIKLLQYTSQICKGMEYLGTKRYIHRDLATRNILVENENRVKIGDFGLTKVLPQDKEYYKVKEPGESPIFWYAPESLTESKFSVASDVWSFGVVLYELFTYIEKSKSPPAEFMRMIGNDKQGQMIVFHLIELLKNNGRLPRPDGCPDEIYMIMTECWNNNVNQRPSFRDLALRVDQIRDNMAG
Description: (§1) JAK kinase inhibition in vitro biochemical assays were performed using Kinase-Glo Plus luminescence kinase assay kit (Promega). Kinase activity was measured by quantitating the amount of ATP remaining in solution following a kinase reaction. Luminescent signal from the assay was correlated with the amount of ATP present and was inversely correlated with the amount of kinase activity. Compounds were diluted in 10% DMSO and 5 μl of the dilution were added to a 50 μl reaction so that the final concentration of DMSO was 1% in all of the reactions. […] All enzymatic reactions were conducted at 30° C. for 45 minutes. […] After the enzymatic reaction, 50 μl of Kinase-Glo Plus Luminescence kinase assay solution (Promega) were added to each reaction and incubated in the plate for 15 minutes at room temperature. Luminescence signal was measured using a Bio-Tek Synergy 2 microplate reader. Kinase activity was performed in duplicate at each concentration and data were analyzed using Graphpad Prism. The difference between luminescence intensities in the absence of Kinase (Lut) and in the presence of Kinase (Luc) was defined as 100% activity (Lut−Luc). Using luminescence signal (Lu) in the presence of the compound, % activity was calculated as: % activity={Lut−Lu)/(Lut−Luc)}×100%, where Lu=the luminescence intensity in the presence of compound.

[1] = system: NALM6.GFP.LUC.CD19 target cells
Description: The percent cytotoxicity to NALM6.GFP.LUC.CD19 target cells was measured by luciferase detection at each round.
In one embodiment, a serial killing assay is a combination of cell killing and how long it takes for CAR T cells to get exhausted under repeated stimulation. In one embodiment, a serial killing assay is a surrogate measure for CAR T cell persistence in vivo.

JAK3 = target: T1, JAK3 (Homo sapiens, UniProt P52333); assay: JAK kinase inhibition biochemical assay (Kinase-Glo Plus luminescence), JAK3
T1 sequence (P52333 1-1124): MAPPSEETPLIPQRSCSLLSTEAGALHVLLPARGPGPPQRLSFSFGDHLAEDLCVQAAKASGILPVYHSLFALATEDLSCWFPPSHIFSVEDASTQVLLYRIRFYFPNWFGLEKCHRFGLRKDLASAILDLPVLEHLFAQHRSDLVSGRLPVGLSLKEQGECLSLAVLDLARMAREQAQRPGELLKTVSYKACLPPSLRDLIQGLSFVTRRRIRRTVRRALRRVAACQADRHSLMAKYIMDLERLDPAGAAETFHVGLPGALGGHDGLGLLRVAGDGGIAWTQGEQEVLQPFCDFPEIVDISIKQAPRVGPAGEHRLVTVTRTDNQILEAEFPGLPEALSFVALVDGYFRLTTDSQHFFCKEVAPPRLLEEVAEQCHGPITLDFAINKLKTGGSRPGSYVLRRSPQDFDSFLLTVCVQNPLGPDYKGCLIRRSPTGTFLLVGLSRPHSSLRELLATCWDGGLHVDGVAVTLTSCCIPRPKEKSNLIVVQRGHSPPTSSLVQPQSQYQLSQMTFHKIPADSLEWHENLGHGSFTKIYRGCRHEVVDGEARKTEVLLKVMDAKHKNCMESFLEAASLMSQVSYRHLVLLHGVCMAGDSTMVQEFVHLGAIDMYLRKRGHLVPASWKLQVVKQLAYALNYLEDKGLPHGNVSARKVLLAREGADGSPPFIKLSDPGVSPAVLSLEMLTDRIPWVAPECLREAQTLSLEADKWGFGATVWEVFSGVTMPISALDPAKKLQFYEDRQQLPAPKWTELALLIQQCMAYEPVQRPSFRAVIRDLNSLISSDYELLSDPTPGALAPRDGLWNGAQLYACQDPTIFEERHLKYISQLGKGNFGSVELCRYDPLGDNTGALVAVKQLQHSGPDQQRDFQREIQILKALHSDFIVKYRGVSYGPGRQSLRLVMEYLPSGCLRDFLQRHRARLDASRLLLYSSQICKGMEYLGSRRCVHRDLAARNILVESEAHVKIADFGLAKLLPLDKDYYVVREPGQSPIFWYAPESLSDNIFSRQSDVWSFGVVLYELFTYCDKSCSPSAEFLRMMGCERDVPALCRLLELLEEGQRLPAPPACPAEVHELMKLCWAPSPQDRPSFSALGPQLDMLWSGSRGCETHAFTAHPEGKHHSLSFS
Description: as §1

macrophage = assay: Macrophage polarization, M1/M2 phenotypic markers by flow cytometry; format: cell-based
[2] = system: monocyte-derived macrophages; assay: Macrophage differentiation and M1/M2 polarization (surface markers by flow cytometry); format: cell-based, human; details: for CD209 surface expression in M2 polarized macrophage cultures: compared to normal M2 polarization culture conditions; for skewing of macrophage phenotype amidst M2 polarizing conditions (M1 markers CD38 and HLA-DR): separate experiment
Description: Monocytes were prepared from healthy donor PBMCs by negative selection for CD14+ monocytes using MACS (these cryopreserved monocytes provided by […], Alameda, CA) at >95% purity. Monocytes were differentiated into macrophages (M0) using traditional methods. In brief, 1×10^6 monocytes were plated into 12-well plate wells in a total volume of 2 mL macrophage culture media (MCM) (ImmunoCult™-SF Macrophage medium, Stem Cell Technologies) containing 50 ng/ml M-CSF and cultured for 6 days at 37° C./5% CO2. On day 2 of differentiation, cultures were replenished with fresh media and M-CSF. On day 6, a portion of the wells containing differentiated macrophages were replenished with 2 ml of fresh MCM containing 50 ng/ml M-CSF, 100 ng/ml LPS, 20 ng/ml IFNg and cultured for another 48 hours to polarize the macrophage to an M1 macrophage phenotype. Also on day 6, another portion of the wells containing differentiated macrophages were replenished with 2 ml of fresh R10 containing 50 ng/ml M-CSF and 20 ng/ml IL-4 and cultured for another 48 hours to polarize the macrophages to M2 macrophage phenotype. On day 8, all putative polarized macrophages were assessed for M1 and M2-specific surface markers using relevant M1/M2 immunophenotyping panels and flow cytometry. The cell surface markers used to assess monocytes, M0, M1 and M2 macrophage phenotypes included CD14, CD32, CD38, CD80, CD86, CD68, CD163, CD200R1, CD204, CD206, CD209, and HLA-DR.

| Compound | persistence of T-cells (CD4 and CD8 counts) (Nalm6 cells) | serial killing assessed by Nalm6 cells (flow cytometry) (Nalm6 cells) | impact on T-cell counts and Nalm6 cell counts (Nalm6 cells) | IC50 (JAK2) | CD209 surface expression in M2 polarized macrophage cultures ([2]; 10 μM) | skewing of macrophage phenotype amidst M2 polarizing conditions (M1 markers CD38 and HLA-DR) [2] | also measured |
| --- | --- | --- | --- | --- | --- | --- | --- |
| Nc1nc2cccc(-c3ccc(CN4CCS(=O)(=O)CC4)cc3)n2n1 [GS-829845] | Improved persistence | enhance serial killing in a dose-dependent manner | not impacted | 2160 nM |  |  |  |
| C[C@@H]1C[C@H]2[C@@H]3CCC4=CC(=O)C=C[C@]4(C)[C@@]3(F)[C@@H](O)C[C@]2(C)[C@@]1(O)C(=O)CO [dexamethasone] |  |  |  |  |  |  | impact on CAR-T serial killing (percent cytotoxicity) [1]: differential impacts |
| O=C(Nc1nc2cccc(-c3ccc(CN4CCS(=O)(=O)CC4)cc3)n2n1)C1CC1 [filgotinib] | Improved persistence | enhance serial killing in a dose-dependent manner | not impacted |  | No reduction | skewed macrophages away from M2 towards M1 phenotype | activity against JAK3 (JAK3; biochemical assay): limited activity; macrophage polarization (macrophage): promotes polarization of macrophages from M2 to M1 macrophages; inhibition of an M2 polarized phenotype ([2]; 10 μM, compared to no drug/normal M2 polarization culture conditions): stronger inhibition of an M2 polarized phenotype than Tofacitinib; influence on inhibiting M2 polarization by period of use ([2]; 10 μM, during 6-day differentiation versus only during M2 polarization): stronger influence on inhibiting M2 polarization when used during the 6-day macrophage differentiation; inhibiting the formation of an M2 polarized phenotype ([2]; 10 μM, used during both macrophage differentiation and M2 polarization): even stronger |
| N#CCC1(n2cc(-c3ncnc4[nH]ccc34)cn2)CN(C2CCN(C(=O)c3ccnc(C(F)(F)F)c3F)CC2)C1 [itacitinib] |  |  |  | 69 nM |  |  | IC50 (JAK3; 10 μM ATP): 921 nM |
| C[C@@H]1CCN(C(=O)CC#N)C[C@@H]1N(C)c1ncnc2[nH]ccc12 [tofacitinib] |  |  |  |  | No reduction | skewed macrophages away from M2 towards M1 phenotype |  |
